Results reported in patent US20060089335A1, “Compositions and methods for enhancing cognitive function and synaptic plasticity” (priority 2003, published 2006).
Several values for one entry are separate records, joined by “and”; a condition that tells them apart may be missing. Equal values may be shown once. Entries after “also recorded” stand apart in the source; their conditions may differ. Peptide text beside a SMILES is read from it.

Columns and labels:
[1] = biological target: T1, GABAB receptor (Rattus norvegicus, UniProt O88871+Q9Z0U4); conditions: rat neocortical slices; cited from earlier work
T1 construct: GABAB receptor-mediated hyperpolarizing responses to baclofen in rat neocortical slices (Kerr, 2003); host or cells: rat neocortical slices (tissue, endogenous receptor)
T1 sequence (O88871 41-940): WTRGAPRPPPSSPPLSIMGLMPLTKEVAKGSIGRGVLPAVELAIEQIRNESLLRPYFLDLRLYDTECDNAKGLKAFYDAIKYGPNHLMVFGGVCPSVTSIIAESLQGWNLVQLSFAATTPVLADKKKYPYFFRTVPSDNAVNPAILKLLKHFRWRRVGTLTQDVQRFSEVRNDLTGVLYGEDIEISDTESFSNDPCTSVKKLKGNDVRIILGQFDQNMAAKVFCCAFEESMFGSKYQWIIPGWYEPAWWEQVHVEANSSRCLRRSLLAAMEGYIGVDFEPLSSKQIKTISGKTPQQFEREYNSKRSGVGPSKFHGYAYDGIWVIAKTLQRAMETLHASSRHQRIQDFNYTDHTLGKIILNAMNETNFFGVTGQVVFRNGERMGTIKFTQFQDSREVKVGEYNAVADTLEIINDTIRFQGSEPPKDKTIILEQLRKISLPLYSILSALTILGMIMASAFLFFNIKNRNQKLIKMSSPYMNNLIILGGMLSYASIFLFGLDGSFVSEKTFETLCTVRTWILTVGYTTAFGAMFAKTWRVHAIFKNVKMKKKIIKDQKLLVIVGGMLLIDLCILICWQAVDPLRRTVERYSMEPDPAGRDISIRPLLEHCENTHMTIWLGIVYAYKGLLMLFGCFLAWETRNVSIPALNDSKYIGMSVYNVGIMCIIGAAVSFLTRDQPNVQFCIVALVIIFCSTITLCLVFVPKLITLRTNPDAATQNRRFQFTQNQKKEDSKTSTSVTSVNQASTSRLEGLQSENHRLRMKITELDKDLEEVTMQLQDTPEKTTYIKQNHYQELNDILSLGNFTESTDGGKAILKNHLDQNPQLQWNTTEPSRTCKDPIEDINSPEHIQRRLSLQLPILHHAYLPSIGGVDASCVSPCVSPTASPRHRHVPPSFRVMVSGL
T1 sequence (Q9Z0U4 17-960): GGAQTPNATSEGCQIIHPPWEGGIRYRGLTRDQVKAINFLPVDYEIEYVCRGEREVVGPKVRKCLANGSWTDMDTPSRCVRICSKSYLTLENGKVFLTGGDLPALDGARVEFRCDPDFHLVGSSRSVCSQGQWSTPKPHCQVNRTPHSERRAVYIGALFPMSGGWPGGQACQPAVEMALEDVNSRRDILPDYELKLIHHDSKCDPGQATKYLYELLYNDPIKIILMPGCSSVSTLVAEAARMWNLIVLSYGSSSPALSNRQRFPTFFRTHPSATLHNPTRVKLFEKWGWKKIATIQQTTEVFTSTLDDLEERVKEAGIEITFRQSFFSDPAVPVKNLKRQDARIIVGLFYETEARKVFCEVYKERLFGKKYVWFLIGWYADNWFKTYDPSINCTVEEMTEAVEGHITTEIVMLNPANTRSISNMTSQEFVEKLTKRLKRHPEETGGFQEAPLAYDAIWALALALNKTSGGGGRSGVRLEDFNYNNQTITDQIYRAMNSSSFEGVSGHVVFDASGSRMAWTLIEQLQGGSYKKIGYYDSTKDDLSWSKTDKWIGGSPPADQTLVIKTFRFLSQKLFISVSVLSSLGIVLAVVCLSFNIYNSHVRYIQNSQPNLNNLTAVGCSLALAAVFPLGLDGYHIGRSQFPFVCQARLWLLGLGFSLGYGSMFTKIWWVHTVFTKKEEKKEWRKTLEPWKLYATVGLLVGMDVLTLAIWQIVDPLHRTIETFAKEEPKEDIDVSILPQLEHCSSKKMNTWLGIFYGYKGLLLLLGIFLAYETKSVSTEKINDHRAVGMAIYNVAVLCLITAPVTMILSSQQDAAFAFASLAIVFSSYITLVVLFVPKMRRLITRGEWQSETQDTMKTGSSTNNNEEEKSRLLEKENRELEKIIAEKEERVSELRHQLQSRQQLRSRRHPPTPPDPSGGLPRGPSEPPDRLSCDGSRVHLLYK

[2] = test system: presynaptic terminals of cultured hippocampal neurons; assay: TBS-induced presynaptic plasticity measured by FM 1-43 dye uptake in hippocampal cultures; format: cell-based, rat; conditions: for TBS-induced potentiation / plasticity after prolonged treatment: 48 hours of incubation
[3] = test system: cultured hippocampal neurons; assay: control recordings of membrane potential, synaptic inputs and firing; format: cell-based, rat; conditions: treatments of FIG. 5D
Method: (§1) Electrophysiology. Dual whole cell perforated patch clamp recordings were made on two interconnected cultured hippocampal pyramidal neurons. Perforated patch pipettes were front-filled with a solution containing (in mM): CsOH, 127; D-gluconic acid, 127; CsCl, 4; HEPES, 10; NaCl, 8; EGTA, 0.4; pH was adjusted to 7.25 with CsOH, and then back-filled with the same solution containing […] amphotericin B (Sigma, St. Louis, Mo.). Extracellular solution contained (in mM): NaCl, 145; KCl, 3; glucose, 15; HEPES, 10; MgCl2, 0.8-1.2; CaCl2, 1.2; 0.005 glycine (Sigma), 0.05 picrotoxin (Sigma); pH adjusted to 7.4 with NaOH. MgCl2 concentration was matched to its concentration in culture medium. In experiments where effects of drugs on neuronal activity were quantified (FIG. 4D), recordings were done in culture medium (with HEPES replacing bicarbonate/CO2 to maintain pH). All experiments were performed at room temperature. For assaying synaptic connectivity, each neuron was stimulated by 1 ms step depolarization from −70 to +30 mV in voltage-clamp mode. Only neurons with monosynaptic connections were used. […] Recordings with access resistance>20 MΩ or that varied substantially were rejected from analysis.

[4] = biological target: NMDA receptors (NR2B-containing) (Rattus norvegicus, UniProt P35439+Q00960); assay: evoked NMDA currents ([…]), double-perforated patch; format: cell-based
Chain of NMDA receptors (NR2B-containing) (Q00960 27-1482, other chains not shown): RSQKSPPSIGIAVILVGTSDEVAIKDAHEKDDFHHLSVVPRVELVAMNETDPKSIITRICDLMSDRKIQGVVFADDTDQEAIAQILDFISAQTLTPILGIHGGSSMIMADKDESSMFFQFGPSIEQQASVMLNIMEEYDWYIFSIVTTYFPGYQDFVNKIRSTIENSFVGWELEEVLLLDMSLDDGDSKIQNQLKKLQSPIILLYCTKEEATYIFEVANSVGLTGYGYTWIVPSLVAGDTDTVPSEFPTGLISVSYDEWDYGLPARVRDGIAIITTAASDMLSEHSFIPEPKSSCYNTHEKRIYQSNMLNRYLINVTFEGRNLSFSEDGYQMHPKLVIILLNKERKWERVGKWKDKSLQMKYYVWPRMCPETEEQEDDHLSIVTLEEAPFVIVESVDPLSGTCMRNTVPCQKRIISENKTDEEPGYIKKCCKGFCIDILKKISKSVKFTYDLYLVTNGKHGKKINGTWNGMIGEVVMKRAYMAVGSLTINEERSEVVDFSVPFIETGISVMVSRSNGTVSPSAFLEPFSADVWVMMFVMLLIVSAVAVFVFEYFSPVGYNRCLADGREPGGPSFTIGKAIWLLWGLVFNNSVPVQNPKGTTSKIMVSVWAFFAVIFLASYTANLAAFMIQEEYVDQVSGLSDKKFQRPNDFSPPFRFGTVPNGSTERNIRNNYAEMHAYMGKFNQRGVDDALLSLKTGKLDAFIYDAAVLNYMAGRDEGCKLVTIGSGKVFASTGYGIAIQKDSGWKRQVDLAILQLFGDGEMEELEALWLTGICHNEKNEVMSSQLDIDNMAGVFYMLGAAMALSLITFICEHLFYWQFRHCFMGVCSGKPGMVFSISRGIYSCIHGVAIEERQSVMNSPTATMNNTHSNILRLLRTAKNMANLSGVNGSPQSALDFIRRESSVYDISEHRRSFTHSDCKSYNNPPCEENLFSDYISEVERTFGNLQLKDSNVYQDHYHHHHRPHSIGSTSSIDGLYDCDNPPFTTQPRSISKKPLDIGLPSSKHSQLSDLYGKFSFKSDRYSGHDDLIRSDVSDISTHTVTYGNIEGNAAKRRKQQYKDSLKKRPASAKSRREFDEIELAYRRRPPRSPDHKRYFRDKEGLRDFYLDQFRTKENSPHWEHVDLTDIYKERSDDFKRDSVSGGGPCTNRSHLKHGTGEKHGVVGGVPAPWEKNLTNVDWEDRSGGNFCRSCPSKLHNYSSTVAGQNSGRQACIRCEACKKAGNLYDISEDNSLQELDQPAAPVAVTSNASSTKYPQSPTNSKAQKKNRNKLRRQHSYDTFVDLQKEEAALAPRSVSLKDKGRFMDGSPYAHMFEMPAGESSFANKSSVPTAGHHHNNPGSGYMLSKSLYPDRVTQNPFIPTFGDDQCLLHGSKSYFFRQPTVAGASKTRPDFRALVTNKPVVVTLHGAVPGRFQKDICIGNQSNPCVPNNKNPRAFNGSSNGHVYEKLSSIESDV
Method: as §1
We hypothesized that one target may be the number and properties of NMDA receptors at individual synapses.

[5] = test system: postsynaptic locations of cultured hippocampal neurons; assay: postsynaptic evoked current response to iontophoretic glutamate (AMPA-R insertion); format: cell-based, rat; conditions: Mg^++-treated culture; reversed by washout
Excerpt: These were generally as described in the preceding examples. Glutamatergic iontophoresis was perfomed as described [Murnick 2000].
Since we wished to correlate the above pre-synaptic findings to the plasticity of single or small clusters of postsynaptic locations, this ruled out traditional double-patch plasticity experiments in which heterogeneous populations of connections are studied. Such studies also usually confound pre-synaptic and postsynaptic effects. For this purpose, we developed a technique of high-temporal and spatial resolution glutamatergic iontophoresis that allows us to stimulate single or small clusters of postsynaptic locations (resolution ˜2 μm, 1 ms; [Murnick 2000]).
To determine whether a decrease in overall activity of a neural network leads to increased plasticity (i.e., an increase in synaptic strength in response to a pattern of stimulation) of postsynaptic locations, we assessed the effect of treatment with Mg^++ on the ability of postsynaptic locations to respond to glutamate. As described above, Mg^++ blocks the NMDA receptor channel at resting membrane potential, so Mg^++ treatment reduces the overall activity level of the neural network. As also described above, increases in postsynaptic intracellular Ca^++ stimulated by activation of NMDA receptors leads to recruitment of AMPA receptors and their insertion into the postsynaptic membrane. […]

[6] = test system: excitatory and inhibitory terminals; conditions: short treatment (2-24 hr)
[7] = test system: structural synaptic terminals; assay: FM dye uptake of structural synaptic terminals, 30 AP protocol; format: cell-based, rat; conditions: 100 ng/ml BDNF
Method: FM 1-43 Loading and Destaining. Functional presynaptic boutons were stained with 10 μM FM 1-43 (synaptogreen, Biotium) by eliciting 30 APs at 0.5-1 Hz. This loading protocol was chosen to avoid short-term plasticity and “re-use” of vesicles through “kiss-run” mode of exocytosis (Aravanis et al., 2003). The neurons were stimulated to fire action potentials by passing 1 ms 50 mA current through platinum electrodes placed at a distance of 7 mm from both sides of the chamber. To ensure reliable action potential initiation, the current amplitude was chosen to be 50% above the threshold for action potential generation, as confirmed by whole-cell patch clamp recording. To prevent recurrent activity, excitatory postsynaptic responses were blocked completely by the addition of DL-AP5 (50 μM, Sigma) and NBQX (10 μM, Sigma) during FM loading and unloading procedures. […]
To further determine the number of these very low Pr terminals and their proportion to the whole population of functional synaptic terminals, we compared the co-localization of FM puncta obtained for the 30 AP loading with puncta obtained using fluorescent antibodies against specific presynaptic proteins. […] Twenty percent more functional synapses were detected by this procedure, also consistent with a previous report (Murthy et al., 1997). […]

Molecule: CC(C)C[C@H](N)C(=O)O [L-Leu]
- potency as potentiator of GABAB receptor-mediated hyperpolarizing responses to baclofen [1]: Most potent

Molecule: [Zn+2] [Zn^++]
- plasticity of presynaptic terminals after partial block of Ca flux ([2]; 0.4 mM Mg^++ added or 5 mM Zn^++ two weeks, 10 mM nimodipine 2 days): significant increases of plasticity
- optimal concentration for plasticity (maximal potentiability) ([2]; 2 weeks treatment): 2 mM
- increase of synaptic strength at optimum concentration ([2]; FIGS. 6H-6J): up to approximately five-fold
- change in average firing rates of neurons within cultured neural networks [3]: none of these treatments induces a significant change

Molecule: N[C@@H](Cc1ccccc1)C(=O)O [L-Phe]
- potency as potentiator of GABAB receptor-mediated hyperpolarizing responses to baclofen [1]: Most potent

Molecule: N[C@@H](CSSC[C@H](N)C(=O)O)C(=O)O [L-Cystine]
- potency as potentiator of GABAB receptor-mediated hyperpolarizing responses to baclofen [1]: less potent

Molecule: CC(C(O)c1ccc(O)cc1)N1CCC(Cc2ccccc2)CC1 (stereo not drawn) [ifenprodil]
- reduction of TBS-induced presynaptic potentiation ([2]; 1 μM ifenprodil, 1.2 mM Mg^2+ cultures): 50% and 48±7%
- reduction of current [4]: 53%
- reduction of total charge transfer [4]: 85% and 45%
- reduction of total charge transfer of EPSCNMDA [4]: 80% and 45% and 45±2%

Molecule: CN1C(=O)CN=C(c2ccccc2F)c2cc([N+](=O)[O-])ccc21 [flunitrazepam, reference compound]
- TBS-induced potentiation / plasticity after prolonged treatment [2]: no significant TBS-induced potentiation; also recorded: lose plasticity

Molecule: C[C@@H](O)[C@H](N)C(=O)O [L-Thr]
- potency as potentiator of GABAB receptor-mediated hyperpolarizing responses to baclofen [1]: less potent

Molecule: N[C@@H](CO)C(=O)O [L-Ser]
- potency as potentiator of GABAB receptor-mediated hyperpolarizing responses to baclofen [1]: less potent

Molecule: D-AP5 [reference compound]
- theta-burst-induced changes of Pr (F2/F1, N2/N1, S2/S1) in presence of NMDAR blocker [2]: No detectable changes of Pr
- effect of NMDA antagonist on the increase in postsynaptic current [5]: blocked it

Molecule: N[C@@H](Cc1ccccc1)C(=O)N[C@@H](Cc1ccccc1)C(=O)O [L-Phe-Phe] (H-Phe-Phe-OH)
- potency as potentiator of GABAB receptor-mediated hyperpolarizing responses to baclofen [1]: Most potent

Molecule: NS(=O)(=O)c1cccc2c1c([N+](=O)[O-])cc1nc(O)c(O)nc12 [NBQX, reference compound]
- TBS-induced potentiation / plasticity after prolonged treatment [2]: no significant TBS-induced potentiation; also recorded: lose plasticity
- change of synaptic density [6]: No short treatment (2-24 hr, baclofen, nimodepine, NBQX, and TTX) produced a significant change of synaptic density

Molecule: N=C(N)NCCC[C@H](N)C(=O)O [L-Arg]
- potency as potentiator of GABAB receptor-mediated hyperpolarizing responses to baclofen [1]: less potent

Molecule: N[C@@H](Cc1ccc(O)cc1)C(=O)O [L-Tyr]
- potency as potentiator of GABAB receptor-mediated hyperpolarizing responses to baclofen [1]: less potent

Molecule: L-Ile
- potency as potentiator of GABAB receptor-mediated hyperpolarizing responses to baclofen [1]: Most potent

Molecule: N[C@@H](CS)C(=O)O [L-Cys]
- potency as potentiator of GABAB receptor-mediated hyperpolarizing responses to baclofen [1]: less potent

Molecule: CC(C)C[C@H](NC(=O)[C@@H](N)Cc1ccccc1)C(=O)O [L-Phe-Leu] (H-Phe-Leu-OH)
- potency as potentiator of GABAB receptor-mediated hyperpolarizing responses to baclofen [1]: Most potent

Molecule: CC(C)[C@H](N)C(=O)O [L-Val]
- potency as potentiator of GABAB receptor-mediated hyperpolarizing responses to baclofen [1]: less potent

Molecule: CSCC[C@H](N)C(=O)O [L-Met]
- potency as potentiator of GABAB receptor-mediated hyperpolarizing responses to baclofen [1]: less potent

B1: BDNF: neurotrophin known to increase the Pr of synaptic terminals (protein, UniProt P23560 19-247, looked up)
Neurotrophic factor BDNF …: APMKEANIRGQGGLAYPGVRTHGTLESVNGPKAGSRGLTSLADTFEHVIEELLDEDQKVRPNEENNKDADLYTSRVMLSSQVPLEPPLLFLLEEYKNYLDAANMSMRVRRHSDPARRGELSVCDSISEWVTAADKKTAVDMSGGTVTVLEKVPVSKGQLKQYFYETKCNPMGYTKEGCRGIDKRHWNSQCRTTQSYVRALTMDSKKRIGWRFIRIDTSCVCTLTIKRGR
- FM dye uptake by structural synaptic terminals [7]: all structural synaptic terminals became capable of taking up FM dye
